The test system of the test is MV-4-11 cells. Put plainly: Gene expression microarray analysis (Affymetrix PrimeView) and GSEA. It counts as cell-based, human. Also on record: RFU PODN (11730768_x_at) / Fold change /veh PODN (11730768_x_at) / RFU LINC00158 (11744669_a_at) / Fold change /veh LINC00158 (11744669_a_at) / RFU DUSP10 (11751237_a_at) / Fold change /veh DUSP10 (11751237_a_at) / RFU ID3 (11757404_x_at) / Fold change /veh ID3 (11757404_x_at) / RFU PLEKHG5 (11737974_s_at) / Fold change /veh PLEKHG5 (11737974_s_at) / RFU LRRC4B (11730491_at) / Fold change /veh LRRC4B (11730491_at) / RFU GIMAP4 (11747438_a_at) / Fold change /veh GIMAP4 (11747438_a_at) / RFU KRT8 (11758183_x_at) / Fold change /veh KRT8 (11758183_x_at) / RFU CNN1 (11734310_a_at) / Fold change /veh CNN1 (11734310_a_at) / RFU VPS37D (11726825_at) / Fold change /veh VPS37D (11726825_at) / RFU C10orf10 (11716522_x_at) / Fold change /veh C10orf10 (11716522_x_at) / RFU KIR2DL2 /// KIR2DL4 /// KIR2DL5A /// KIR2DL5B /// KIR2DS1 /// KIR2DS2 /// KIR2DS3 /// KIR2DS4 /// KIR3DL3 /// KIR3DL3 /// KIR3DS1 (11738374_at) / Fold change /veh KIR2DL2 /// KIR2DL4 /// KIR2DL5A /// KIR2DL5B /// KIR2DS1 /// KIR2DS2 /// KIR2DS3 /// KIR2DS4 /// KIR3DL3 /// KIR3DL3 /// KIR3DS1 (11738374_at) / RFU C1QL1 (11718748_at) / Fold change /veh C1QL1 (11718748_at) / RFU TMPRSS4 (11747572_a_at) / Fold change /veh TMPRSS4 (11747572_a_at) / RFU HAMP (11756126_x_at) / Fold change /veh HAMP (11756126_x_at) / RFU RNFT2 (11725882_a_at) / Fold change /veh RNFT2 (11725882_a_at) / RFU NR4A2 (11747474_a_at) / Fold change /veh NR4A2 (11747474_a_at) / RFU ABCC12 (11746883_a_at) / Fold change /veh ABCC12 (11746883_a_at) / RFU TMEM136 (11760407_x_at) / Fold change /veh TMEM136 (11760407_x_at) / RFU CLDN22 /// WWC2 (11732394_at) / Fold change /veh CLDN22 /// WWC2 (11732394_at) / RFU HLA-DPB1 (11760878_x_at) / Fold change /veh HLA-DPB1 (11760878_x_at) / RFU SPINT1 (11716480_a_at) / Fold change /veh SPINT1 (11716480_a_at) / RFU GAP43 (11754022_s_at) / Fold change /veh GAP43 (11754022_s_at) / RFU A4GNT (11735810_at) / Fold change /veh A4GNT (11735810_at) / RFU PRB3 (11715151_x_at) / Fold change /veh PRB3 (11715151_x_at) / RFU TUBB4B (11761932_at) / Fold change /veh TUBB4B (11761932_at) / RFU CAPN14 (11732068_a_at) / Fold change /veh CAPN14 (11732068_a_at) / RFU TMCC2 (11721928_a_at) / Fold change /veh TMCC2 (11721928_a_at) / RFU IRGQ (11745062_a_at) / Fold change /veh IRGQ (11745062_a_at) / RFU FAM174B (11720279_a_at) / Fold change /veh FAM174B (11720279_a_at) / RFU TMPRSS4 (11748680_a_at) / Fold change /veh TMPRSS4 (11748680_a_at) / RFU FAM212B (11763350_a_at) / Fold change /veh FAM212B (11763350_a_at) / RFU PLEKHG5 (11743358_a_at) / Fold change /veh PLEKHG5 (11743358_a_at) / RFU ZSCAN30 (11745921_a_at) / Fold change /veh ZSCAN30 (11745921_a_at) / RFU CMKLR1 (11741424_a_at) / Fold change /veh CMKLR1 (11741424_a_at) / RFU LOC101060620 /// MAPK8IP1 (11723275_at) / Fold change /veh LOC101060620 /// MAPK8IP1 (11723275_at) / RFU SPTSSB (11747773_x_at) / Fold change /veh SPTSSB (11747773_x_at) / RFU PRSS12 (11739890_at) / Fold change /veh PRSS12 (11739890_at) / RFU BIN1 (11741810_x_at) / Fold change /veh BIN1 (11741810_x_at) / RFU WNT11 (11732464_a_at) / Fold change /veh WNT11 (11732464_a_at) / RFU C10orf10 (11716521_a_at) / Fold change /veh C10orf10 (11716521_a_at) / RFU C5orf56 (11738089_at) / Fold change /veh C5orf56 (11738089_at) / RFU CYB561 (11721691_x_at) / Fold change /veh CYB561 (11721691_x_at) / RFU ANKRD19P (11752326_a_at) / Fold change /veh ANKRD19P (11752326_a_at) / RFU OR2T12 /// OR2T33 /// OR2T8 (11738714_s_at) / Fold change /veh OR2T12 /// OR2T33 /// OR2T8 (11738714_s_at) / RFU VCAN (11748164_a_at) / Fold change /veh VCAN (11748164_a_at) / RFU JSRP1 (11732532_at) / Fold change /veh JSRP1 (11732532_at) / RFU KRTAP10-11 (11738290_x_at) / Fold change /veh KRTAP10-11 (11738290_x_at) / RFU MYO3A (11730013_a_at) / Fold change /veh MYO3A (11730013_a_at) / RFU EBF3 (11725865_a_at) / Fold change /veh EBF3 (11725865_a_at) / RFU CAMK2N1 (11719241_x_at) / Fold change /veh CAMK2N1 (11719241_x_at) / RFU C5orf56 (11738088_a_at) / Fold change /veh C5orf56 (11738088_a_at) / RFU OLFML3 (11715873_a_at) / Fold change /veh OLFML3 (11715873_a_at) / RFU LOC100653217 /// NTM (11731650_a_at) / Fold change /veh LOC100653217 /// NTM (11731650_a_at) / RFU MAPK11 (11762145_a_at) / Fold change /veh MAPK11 (11762145_a_at) / RFU FIZ1 (11724087_x_at) / Fold change /veh FIZ1 (11724087_x_at) / RFU OASL (11726364_x_at) / Fold change /veh OASL (11726364_x_at) / RFU SOX15 (11748057_x_at) / Fold change /veh SOX15 (11748057_x_at) / RFU CD79A (11719716_a_at) / Fold change /veh CD79A (11719716_a_at) / RFU HIST1H1D (11736915_at) / Fold change /veh HIST1H1D (11736915_at) / RFU CASKIN2 (11723855_a_at) / Fold change /veh CASKIN2 (11723855_a_at) / RFU LOC730098 (11760151_x_at) / Fold change /veh LOC730098 (11760151_x_at) / RFU OR4N2 (11742367_at) / Fold change /veh OR4N2 (11742367_at) / RFU PRRT2 (11749266_a_at) / Fold change /veh PRRT2 (11749266_a_at) / RFU SNX32 (11753110_a_at) / Fold change /veh SNX32 (11753110_a_at) / RFU CDHR5 (11726645_a_at) / Fold change /veh CDHR5 (11726645_a_at) / RFU RCAN1 (11760418_a_at) / Fold change /veh RCAN1 (11760418_a_at) / RFU FAM167A (11723789_a_at) / Fold change /veh FAM167A (11723789_a_at) / RFU FAM26E (11764081_at) / Fold change /veh FAM26E (11764081_at) / RFU ISYNA1 (11749810_s_at) / Fold change /veh ISYNA1 (11749810_s_at) / RFU ACY1 (11761880_at) / Fold change /veh ACY1 (11761880_at) / RFU 11764098_at / Fold change /veh 11764098_at / RFU SAMD14 (11745864_x_at) / Fold change /veh SAMD14 (11745864_x_at) / RFU NPB (11741838_a_at) / Fold change /veh NPB (11741838_a_at) / RFU TMPRSS6 (11731388_a_at) / Fold change /veh TMPRSS6 (11731388_a_at) / RFU KRTAP10-2 (11738614_at) / Fold change /veh KRTAP10-2 (11738614_at) / RFU ARHGAP8 /// PRR5-ARHGAP8 (11727945_x_at) / Fold change /veh ARHGAP8 /// PRR5-ARHGAP8 (11727945_x_at) / RFU KRTAP5-7 /// NADSYN1 (11734609_at) / Fold change /veh KRTAP5-7 /// NADSYN1 (11734609_at) / RFU RASL12 (11751679_a_at) / Fold change /veh RASL12 (11751679_a_at) / RFU CDKN2B (11736163_a_at) / Fold change /veh CDKN2B (11736163_a_at) / RFU PRF1 (11729649_at) / Fold change /veh PRF1 (11729649_at) / RFU, ZNF638 /// ZNF638-IT1 / Fold change vs veh, ZNF638 /// ZNF638-IT1 / RFU, PANK3 / Fold change vs veh, PANK3 / RFU, SH3YL1 / Fold change vs veh, SH3YL1 / RFU, ZEB2 / Fold change vs veh, ZEB2 / RFU, NRIP1 / Fold change vs veh, NRIP1 / RFU, PTTG1IP / Fold change vs veh, PTTG1IP / RFU, CAPN2 / Fold change vs veh, CAPN2 / RFU, MED14 / Fold change vs veh, MED14 / RFU, SNORA58 / Fold change vs veh, SNORA58 / RFU, C1orf63 / Fold change vs veh, C1orf63 / RFU, LRRFIP1 / Fold change vs veh, LRRFIP1 / RFU, NDUFAF7 / Fold change vs veh, NDUFAF7 / RFU, SLC12A2 / Fold change vs veh, SLC12A2 / RFU, IBTK / Fold change vs veh, IBTK / RFU, ESF1 / Fold change vs veh, ESF1 / Fold change vs veh, TMEM50B / RFU, TAOK1 / Fold change vs veh, TAOK1 / RFU, ACBD3 / Fold change vs veh, ACBD3 / RFU, TMA16 / Fold change vs veh, TMA16 / RFU, RWDD3 / Fold change vs veh, RWDD3 / RFU, BCAT1 / Fold change vs veh, BCAT1 / RFU, EDEM3 / Fold change vs veh, EDEM3 / RFU, TMEM33 / Fold change vs veh, TMEM33 / RFU, WDR75 / Fold change vs veh, WDR75 / RFU, AHCTF1 / Fold change vs veh, AHCTF1 / RFU, TFRC / Fold change vs veh, TFRC / RFU, ZDHHC17 / Fold change vs veh, ZDHHC17 / RFU, NOM1 / Fold change vs veh, NOM1 / RFU, ARL8B / Fold change vs veh, ARL8B / RFU, ZBTB11 / Fold change vs veh, ZBTB11 / RFU, TAMM41 / Fold change vs veh, TAMM41 / RFU, KIAA1704 /// LOC100996395 / Fold change vs veh, KIAA1704 /// LOC100996395 / RFU, ING1 / Fold change vs veh, ING1 / RFU, TRMT61B / Fold change vs veh, TRMT61B / RFU, FUBP3 / Fold change vs veh, FUBP3 / RFU, TP53 / Fold change vs veh, TP53 / RFU, TNKS2 / Fold change vs veh, TNKS2 / RFU, ZFP14 / Fold change vs veh, ZFP14 / RFU, ACTR2 / Fold change vs veh, ACTR2 / RFU, PPP3R1 / Fold change vs veh, PPP3R1 / RFU, PIK3R1 / Fold change vs veh, PIK3R1 / RFU, HNRNPA1 / Fold change vs veh, HNRNPA1 / RFU, RNF170 / Fold change vs veh, RNF170 / RFU, ZNF28 / Fold change vs veh, ZNF28 / RFU, RNGTT / Fold change vs veh, RNGTT / RFU, OGT / Fold change vs veh, OGT / RFU, BRD1 / Fold change vs veh, BRD1 / RFU, MARS / Fold change vs veh, MARS / RFU, ZNF655 / Fold change vs veh, ZNF655 / RFU, FAHD1 / Fold change vs veh, FAHD1 / RFU, BDP1 / Fold change vs veh, BDP1 / RFU, LRRCC1 / Fold change vs veh, LRRCC1 / RFU, ARID1A / Fold change vs veh, ARID1A / RFU, ZNF146 / Fold change vs veh, ZNF146 / RFU, ZNF330 / Fold change vs veh, ZNF330 / RFU, GPN3 / Fold change vs veh, GPN3 / RFU, C9orf123 / Fold change vs veh, C9orf123 / RFU, N4BP2L2 / Fold change vs veh, N4BP2L2 / RFU, ARFIP1 / Fold change vs veh, ARFIP1 / RFU, FAM179B / Fold change vs veh, FAM179B / RFU, BCL10 / Fold change vs veh, BCL10 / RFU, UHRF1BP1L / Fold change vs veh, UHRF1BP1L / RFU, BET1 / Fold change vs veh, BET1 / RFU, CNOT2 / Fold change vs veh, CNOT2 / RFU, ZNF268 / Fold change vs veh, ZNF268 / Fold change vs veh, ZNF507 / RFU, DGCR2 / Fold change vs veh, DGCR2 / RFU, WDSUB1 / Fold change vs veh, WDSUB1 / Fold change vs veh, HSP90B1 /// MIR3652 / RFU, ADSS / Fold change vs veh, ADSS / RFU, GK / Fold change vs veh, GK / RFU, ZNF148 / Fold change vs veh, ZNF148 / RFU, TAF9 / Fold change vs veh, TAF9 / RFU, SLC1A5 / Fold change vs veh, SLC1A5 / RFU, SLMO2 / Fold change vs veh, SLMO2 / RFU, ABCC4 / Fold change vs veh, ABCC4 / RFU, LOC101060439 /// RAP1B / Fold change vs veh, LOC101060439 /// RAP1B / RFU, RFX7 / Fold change vs veh, RFX7 / RFU, GTPBP10 / Fold change vs veh, GTPBP10 / RFU, CNEP1R1 / Fold change vs veh, CNEP1R1 / RFU, BIVM-ERCC5 /// ERCC5 / Fold change vs veh, BIVM-ERCC5 /// ERCC5 / RFU, ILF3 / Fold change vs veh, ILF3 / RFU 11762660_at / Fold change /veh 11762660_at / RFU VCAN (11757783_s_at) / Fold change /veh VCAN (11757783_s_at) / RFU DDX43 (11728927_at) / Fold change /veh DDX43 (11728927_at) / RFU KRT8 (11758188_x_at) / Fold change /veh KRT8 (11758188_x_at) / RFU NKD1 (11759106_at) / Fold change /veh NKD1 (11759106_at) / RFU SRD5A1 (11742802_a_at) / Fold change /veh SRD5A1 (11742802_a_at) / RFU TPSAB1 /// TPSB2 (11721975_s_at) / Fold change /veh TPSAB1 /// TPSB2 (11721975_s_at) / RFU GSTM3 (11746129_a_at) / Fold change /veh GSTM3 (11746129_a_at) / RFU IL23R (11737362_x_at) / Fold change /veh IL23R (11737362_x_at) / RFU TMEM51 (11727254_a_at) / Fold change /veh TMEM51 (11727254_a_at) / RFU PIWIL2 (11732686_x_at) / Fold change /veh PIWIL2 (11732686_x_at) / RFU ORM1 (11744905_x_at) / Fold change /veh ORM1 (11744905_x_at) / RFU CCDC152 (11743942_at) / Fold change /veh CCDC152 (11743942_at) / RFU ECM1 (11717891_a_at) / Fold change /veh ECM1 (11717891_a_at) / RFU IL23R (11748794_a_at) / Fold change /veh IL23R (11748794_a_at) / RFU TNFAIP8L3 (11732012_x_at) / Fold change /veh TNFAIP8L3 (11732012_x_at) / RFU MBOAT4 (11741988_at) / Fold change /veh MBOAT4 (11741988_at) / RFU 11764193_at / Fold change /veh 11764193_at / RFU TMEM53 (11763286_at) / Fold change /veh TMEM53 (11763286_at) / RFU MAGEB2 (11727129_at) / Fold change /veh MAGEB2 (11727129_at) / RFU TMEM200A (11744735_a_at) / Fold change /veh TMEM200A (11744735_a_at) / RFU CCDC152 (11751479_a_at) / Fold change /veh CCDC152 (11751479_a_at) / RFU FAM211A (11726209_a_at) / Fold change /veh FAM211A (11726209_a_at) / RFU RGS16 (11746705_a_at) / Fold change /veh RGS16 (11746705_a_at) / RFU VCAN (11755009_s_at) / Fold change /veh VCAN (11755009_s_at) / RFU RHOB (11743442_s_at) / Fold change /veh RHOB (11743442_s_at) / RFU RGS16 (11720943_a_at) / Fold change /veh RGS16 (11720943_a_at) / RFU RGS16 (11720944_at) / Fold change /veh RGS16 (11720944_at) / RFU, VPS4B / Fold change vs veh, VPS4B / RFU, CREB1 / Fold change vs veh, CREB1 / RFU, DNAJC13 / Fold change vs veh, DNAJC13 / RFU, GNAQ / Fold change vs veh, GNAQ / RFU, CDK5R1 / Fold change vs veh, CDK5R1 / RFU, ZRANB3 / Fold change vs veh, ZRANB3 / RFU, CUL4A / Fold change vs veh, CUL4A / RFU, CCNY / Fold change vs veh, CCNY / RFU, UFL1 / Fold change vs veh, UFL1 / RFU, COG3 / Fold change vs veh, COG3 / RFU, DIAPH2 / Fold change vs veh, DIAPH2 / RFU, SKA2 / Fold change vs veh, SKA2 / RFU, AFF3 / Fold change vs veh, AFF3 / RFU, LMF1 / Fold change vs veh, LMF1 / RFU, IPO11 / Fold change vs veh, IPO11 / RFU, DFFB / Fold change vs veh, DFFB / RFU, FOXP1 / Fold change vs veh, FOXP1 / RFU, CARD8 / Fold change vs veh, CARD8 / RFU, STRN3 / Fold change vs veh, STRN3 / RFU, ADK / Fold change vs veh, ADK / RFU, RASSF2 / Fold change vs veh, RASSF2 / RFU, WIPF1 / Fold change vs veh, WIPF1 / RFU, LARP1B / Fold change vs veh, LARP1B / RFU, RASA1 / Fold change vs veh, RASA1 / RFU, RB1 / Fold change vs veh, RB1 / RFU, PPFIA1 / Fold change vs veh, PPFIA1 / RFU, MAT2A / Fold change vs veh, MAT2A / RFU, CCT5 / Fold change vs veh, CCT5 / RFU, WDR92 / Fold change vs veh, WDR92 / RFU, CUX1 / Fold change vs veh, CUX1 / RFU, TTC7A / Fold change vs veh, TTC7A / RFU, TMEM135 / Fold change vs veh, TMEM135 / RFU, DEPTOR / Fold change vs veh, DEPTOR / RFU, CPM / Fold change vs veh, CPM / RFU, DNAJB6 / Fold change vs veh, DNAJB6 / RFU, CACNA2D3 / Fold change vs veh, CACNA2D3 / RFU, DTX4 / Fold change vs veh, DTX4 / RFU, TFCP2 / Fold change vs veh, TFCP2 / RFU, GMCL1 /// GMCL1P1 / Fold change vs veh, GMCL1 /// GMCL1P1 / RFU, AEBP2 / Fold change vs veh, AEBP2 / RFU, SNHG1 /// SNORD22 /// SNORD25 /// SNORD26 /// SNORD27 /// SNORD28 /// SNORD29 /// SNORD31 / Fold change vs veh, SNHG1 /// SNORD22 /// SNORD25 /// SNORD26 /// SNORD27 /// SNORD28 /// SNORD29 /// SNORD31 / Fold change (Aza/veh), C12orf56 (ProbeSet 11735607_a_at) / Fold change (ACY-1035/veh), C12orf56 (ProbeSet 11735607_a_at) / Fold change (Aza/veh), FGFR1OP (ProbeSet 11751329_s_at) / Fold change (ACY-1035/veh), FGFR1OP (ProbeSet 11751329_s_at) / Fold change (Aza/veh), VPS36 (ProbeSet 11739960_a_at) / Fold change (ACY-1035/veh), VPS36 (ProbeSet 11739960_a_at) / RFU SYPL1 (11715823_x_at) / Fold change /veh SYPL1 (11715823_x_at) / RFU IGFBP7 (11715501_s_at) / Fold change /veh IGFBP7 (11715501_s_at) / RFU REEP3 (11722064_at) / Fold change /veh REEP3 (11722064_at) / RFU IGLL1 (11728026_x_at) / Fold change /veh IGLL1 (11728026_x_at): dose or concentration left out as unconfirmed. The conditions noted are these: ProbeSet 11725902_s_at; LIST D.

Consider `Nc1ccc(-c2cccs2)cc1NC(=O)c1ccc2c(c1)cc(C1CC1)n2CCN1CCOCC1` [ACY-1035], for which the “RFU, TMEM135” value turned out to be 107.94 RFU.

These data come from paper PMC5218480 (PLoS ONE, 2017).
